US10138226B2, “Benzimidazol-2-amines as MIDH1 inhibitors” (Bayer Pharma Aktiengesellschaft, priority 2014, dated 2018)

How the values were obtained:
[1] = tested on: LN229 R132H cells overexpressing mutated isocitrate dehydrogenase (mIDH); assay: Mutant IDH1 cellular assay (2-HG levels in medium); format: cell-based; conditions: 2-HG in medium of LN229 R132H cells, 24 hours incubation, fluorescence readout
Description: Mutant IDH1 Cellular Assay
Levels of (2R)-2-hydroxyglutarate (2HG) were measured in medium of a cell line with overexpression of mutated isocitrate dehydrogenase (mIDH) protein. mIDH catalyzes the NADPH-dependent reduction of alpha-ketoglutarate to 2-HG. Cells (LN229 R132H, Mohrenz et al., Apoptosis (2013) 18:1416-1425) were grown in DMEM containing 10% FCS. They were harvested by trypsin and seeded into 96-well plates. Cells were incubated overnight at 37° C. in 5% CO2. The next day test compounds were added to each cell well. The final concentration of DMSO was 0.1% and DMSO controls were included. The plates were then placed in an incubator for 24 hours.
2-HG was measured according to Balss et al. (Acta Neuropathol (2012) 124: 883-891). Briefly, HClO4 was added to each well and the plates were centrifuged. Aliquots are removed and incubated with hydroxyglutarate dehydrogenase (HGDH), diaphorase, NAD+, and resazurin. The conversion of resazurin to resorufin was detected by fluorescence spectroscopy at Ex 540 nm Em 600 nm. The increase in fluorescence is proportional to 2-HG production. IC50 values are determined by interpolation from plots of relative fluorescence vs inhibitor concentration.

IDH1 R132H enzyme = IDH1 R132H enzyme (Homo sapiens (Human), UniProt O75874, R132H); assay: Mutant IDH1 R132H biochemical assay; conditions: NADPH consumption, luminescent readout, 250 μM α-KG, 1 μM NADPH, 32° C., 30 minutes, test range 0.002-10 μM; further: 1.5 nM enzyme
Description: mIDH1 catalyzes the NADPH-dependent reduction of alpha-ketoglutarate (α-KG) to (2R)-2-hydroxyglutarate (2-HG). NADPH consumption was measured by luminescent readout.
The biochemical reactions were performed at 32° C. in 384-well plates using a reaction volume of 41 μl and the following assay buffer conditions: 50 mM Tris pH 7.5, 100 mM NaCl, 20 mM MgCl2, 0.05% BSA, 0.01% Brij, 1 μM NADPH, and 250 μM α-KG. […] Test compounds were used in a concentration range between 0.002 and 10 μM. The final DMSO concentration was 2.4%.
The reaction was incubated for 30 minutes, then 40 μl of detection mix (0.75 μg/ml Luciferase, 0.02 U/ml Oxidoreductase, 4 μg/ml FMN, 2 μl/ml Decanal/Ethanol, 50 mM Tris pH 7.5, 0.5% Glycerin, 0.01% Tween-20, 0.05% BSA) was added. Luminescence was measured on a luminescent reader (10 seconds measuring time, 1 second integration period, 30% sensitivity). The decrease in luminescence is proportional to mIDH1 activity. IC50 values are determined by interpolation from plots of relative luminescence versus inhibitor concentration.

Chain of IDH1 R132H enzyme (O75874 whole entry R132H): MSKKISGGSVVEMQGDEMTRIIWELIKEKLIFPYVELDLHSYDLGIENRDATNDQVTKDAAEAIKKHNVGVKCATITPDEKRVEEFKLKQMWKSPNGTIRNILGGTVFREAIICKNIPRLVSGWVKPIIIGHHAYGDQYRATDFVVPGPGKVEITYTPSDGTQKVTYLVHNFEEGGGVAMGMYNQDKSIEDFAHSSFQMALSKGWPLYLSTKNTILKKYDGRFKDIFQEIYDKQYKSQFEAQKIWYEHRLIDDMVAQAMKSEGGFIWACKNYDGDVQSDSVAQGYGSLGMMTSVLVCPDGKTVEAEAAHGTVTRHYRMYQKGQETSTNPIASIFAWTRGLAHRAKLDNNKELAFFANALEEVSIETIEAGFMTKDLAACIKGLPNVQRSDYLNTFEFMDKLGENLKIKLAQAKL

SMILES	IC50 (IDH1 R132H enzyme) [µM]	other results
COC(=O)c1ccc2nc(Nc3ccc(OC(F)(F)F)cc3)n([C@H]3C[C@@H](C)CC(C)(C)C3)c2c1 (racemic) [Example 2-1, (±) methyl 2-{[4-(trifluoromethoxy)phenyl]amino}-1-[(cis)-3,3,5-trimethylcyclohexyl]-1H-benzimidazole-6-carboxylate]	–	IC50 ([1]; Homo sapiens, LN-229, 24 h): 3.2 µM
COC(=O)c1ccc2nc(Nc3ccc(OC(F)(F)F)cc3)n([C@H]3C[C@H](C)CC(C)(C)C3)c2c1 (racemic) [Example 2-2, (±) methyl 2-{[4-(trifluoromethoxy)phenyl]amino}-1-[(trans)-3,3,5-trimethylcyclohexyl]-1H-benzimidazole-6-carboxylate]	–	IC50 ([1]; Homo sapiens, LN-229, 24 h): 10 µM
C[C@@H]1C[C@H](n2c(Nc3ccc(OC(F)(F)F)cc3)nc3ccc(C(=O)NC4CCCC4)cc32)CC(C)(C)C1 (racemic) [Example 2-5, (±) N-cyclopentyl-2-{[4-(trifluoromethoxy)phenyl]amino}-1-[(cis)-3,3,5-trimethylcyclohexyl]-1H-benzimidazole-6-carboxamide]	≥ 10	–
CNC(=O)c1ccc2nc(Nc3ccc(OC(F)(F)F)cc3)n([C@H]3C[C@@H](C)CC(C)(C)C3)c2c1 (racemic) [Example 2-8, (±) N-methyl-2-{[4-(trifluoromethoxy)phenyl]amino}-1-[(cis)-3,3,5-trimethylcyclohexyl]-1H-benzimidazole-6-carboxamide]	0.43	–
COC(=O)CNC(=O)c1ccc2nc(Nc3ccc(OC(F)(F)F)cc3)n([C@H]3C[C@@H](C)CC(C)(C)C3)c2c1 (racemic) [Example 2-10, (±) methyl N-[(2-{[4-(trifluoromethoxy)phenyl]amino}-1-[(cis)-3,3,5-trimethylcyclohexyl]-1H-benzimidazol-6-yl)carbonyl]glycinate]	6.6	–
C[C@@H]1C[C@H](n2c(Nc3ccc(OC(F)(F)F)cc3)nc3ccc(C(=O)N(C)CC(=O)O)cc32)CC(C)(C)C1 (racemic) [Example 2-11, (±) N-methyl-N-[(2-{[4-(trifluoromethoxy)phenyl]amino}-1-[(cis)-3,3,5-trimethylcyclohexyl]-1H-benzimidazol-6-yl)carbonyl]glycine]	7.6	–
C[C@@H]1C[C@H](n2c(Nc3ccc(OC(F)(F)F)cc3)nc3ccc(C(=O)NCCO)cc32)CC(C)(C)C1 (racemic) [Example 2-13, (±) N-(2-hydroxyethyl)-2-{[4-(trifluoromethoxy)phenyl]amino}-1-[(cis)-3,3,5-trimethylcyclohexyl]-1H-benzimidazole-6-carboxamide]	2.2	–
COC(=O)CCNC(=O)c1ccc2nc(Nc3ccc(OC(F)(F)F)cc3)n([C@H]3C[C@@H](C)CC(C)(C)C3)c2c1 (racemic) [Example 2-14, (±) methyl N-[(2-{[4-(trifluoromethoxy)phenyl]amino}-1-[(cis)-3,3,5-trimethylcyclohexyl]-1H-benzimidazol-6-yl)carbonyl]-β-alaninate]	≥ 10	–
C[C@@H]1C[C@H](n2c(Nc3ccc(OC(F)(F)F)cc3)nc3ccc(C(=O)NCCC(=O)O)cc32)CC(C)(C)C1 (racemic) [Example 2-15, (±) N-[(2-{[4-(trifluoromethoxy)phenyl]amino}-1-[(cis)-3,3,5-trimethylcyclohexyl]-1H-benzimidazol-6-yl)carbonyl]-β-alanine]	≥ 10	–
C[C@@H]1C[C@H](n2c(Nc3ccc(OC(F)(F)F)cc3)nc3ccc(C(=O)NS(C)(=O)=O)cc32)CC(C)(C)C1 (racemic) [Example 2-19, (±) N-(methylsulfonyl)-2-{[4-(trifluoromethoxy)phenyl]amino}-1-[(cis)-3,3,5-trimethylcyclohexyl]-1H-benzimidazole-6-carboxamide]	≥ 10	–
C[C@@H]1C[C@H](n2c(Nc3ccc(OC(F)(F)F)cc3)nc3ccc(C(=O)NCc4ccc(F)cc4)cc32)CC(C)(C)C1 (racemic) [Example 2-21, (±) N-(4-fluorobenzyl)-2-{[4-(trifluoromethoxy)phenyl]amino}-1-[(cis)-3,3,5-trimethylcyclohexyl]-1H-benzimidazole-6-carboxamide]	≥ 10	–
C[C@@H]1C[C@H](n2c(Nc3ccc(OC(F)(F)F)cc3)nc3ccc(C(=O)Nc4ccc(F)cc4)cc32)CC(C)(C)C1 (racemic) [Example 2-22, (±) N-(4-fluorophenyl)-2-{[4-(trifluoromethoxy)phenyl]amino}-1-[(cis)-3,3,5-trimethylcyclohexyl]-1H-benzimidazole-6-carboxamide]	≥ 10	–
C[C@@H]1C[C@H](n2c(Nc3ccc(OC(F)(F)F)cc3)nc3ccc(C(=O)NC4CC4)cc32)CC(C)(C)C1 (racemic) [Example 2-23, (±) N-cyclopropyl-2-{[4-(trifluoromethoxy)phenyl]amino}-1-[(cis)-3,3,5-trimethylcyclohexyl]-1H-benzimidazole-6-carboxamide]	≥ 10	–
CCOC(=O)CCN(C)C(=O)c1ccc2nc(Nc3ccc(OC(F)(F)F)cc3)n([C@H]3C[C@@H](C)CC(C)(C)C3)c2c1 (racemic) [Example 2-24, (±) ethyl N-methyl-N-[(2-{[4-(trifluoromethoxy)phenyl]amino}-1-[(cis)-3,3,5-trimethylcyclohexyl]-1H-benzimidazol-6-yl)carbonyl]-β-alaninate]	≥ 10	–
C[C@H]1C[C@H](n2c(Nc3ccc(OC(F)(F)F)cc3)nc3ccc(C(=O)N(C)C)cc32)CC(C)(C)C1 (racemic) [Example 2-25, (±) N,N-dimethyl-2-{[4-(trifluoromethoxy)phenyl]amino}-1-[(trans)-3,3,5-trimethylcyclohexyl]-1H-benzimidazole-6-carboxamide]	0.47	–
CNC(=O)c1ccc2nc(Nc3ccc(OC(F)(F)F)cc3)n([C@H]3C[C@@H](C)CC(C)(C)C3)c2c1 (single isomer, unassigned; enantiomer a) [Example 2-8-1, N-methyl-2-{[4-(trifluoromethoxy)phenyl]amino}-1-[(cis)-3,3,5-trimethylcyclohexyl]-1H-benzimidazole-6-carboxamide, enantiomer A]	0.92	–
C[C@@H]1C[C@H](n2c(Nc3ccc(OC(F)(F)F)cc3)nc3ccc(C(=O)N4CCOCC4)cc32)CC(C)(C)C1 (single isomer, unassigned; enantiomer a) [Example 2-16-1, morpholin-4-yl(2-{[4-(trifluoromethoxy)phenyl]amino}-1-[(cis)-3,3,5-trimethylcyclohexyl]-1H-benzimidazol-6-yl)methanone, enantiomer A]	–	IC50 [1]: 0.5 µM
C[C@@H]1C[C@H](n2c(Nc3ccc(OC(F)(F)F)cc3)nc3ccc(C(=O)NC4CC4)cc32)CC(C)(C)C1 (single isomer, unassigned; enantiomer a) [Example 2-23-1, N-cyclopropyl-2-{[4-(trifluoromethoxy)phenyl]amino}-1-[(cis)-3,3,5-trimethylcyclohexyl]-1H-benzimidazole-6-carboxamide, enantiomer A]	≥ 10	–
COC(=O)c1ccc2nc(Nc3ccc(OC(F)(F)F)cc3)n([C@H]3C[C@@H](C)CC(C)(C)C3)c2c1 (single isomer, unassigned; enantiomer b) [Example 2-1-2, methyl 2-{[4-(trifluoromethoxy)phenyl]amino}-1-[(cis)-3,3,5-trimethylcyclohexyl]-1H-benzimidazole-6-carboxylate, enantiomer B]	–	IC50 ([1]; Homo sapiens, LN-229, 24 h): 5.7 µM
CNC(=O)c1ccc2nc(Nc3ccc(OC(F)(F)F)cc3)n([C@H]3C[C@@H](C)CC(C)(C)C3)c2c1 (single isomer, unassigned; enantiomer b) [Example 2-8-2, N-methyl-2-{[4-(trifluoromethoxy)phenyl]amino}-1-[(cis)-3,3,5-trimethylcyclohexyl]-1H-benzimidazole-6-carboxamide, enantiomer B]	1.2	–
C[C@@H]1C[C@H](n2c(Nc3ccc(OC(F)(F)F)cc3)nc3ccc(C(=O)NC4CC4)cc32)CC(C)(C)C1 (single isomer, unassigned; enantiomer b) [Example 2-23-2, N-cyclopropyl-2-{[4-(trifluoromethoxy)phenyl]amino}-1-[(cis)-3,3,5-trimethylcyclohexyl]-1H-benzimidazole-6-carboxamide, enantiomer B]	≥ 10	–
